Assay results: patent publication US20090172831A1, “Methods for the production of plants resistant to HPPD herbicides” (Syngenta Limited, priority 2000, published 2009)
“And” between values parts separate entries of the source, which are not always exact repeats. Equal entries are not always repeated. Where two headings read alike, the source gives them in different places.

Experiments:
Arabidopsis HPPD [1] = target: T1, Arabidopsis HPPD (Arabidopsis thaliana, UniProt P93836); experiment: Rate of binding (kon) by radiolabelled inhibitor and separation of bound from free
T1 construct: made in house; host or cells: E. coli BL21 (DE3) codon+ RP
T1 sequence (P93836 1-445): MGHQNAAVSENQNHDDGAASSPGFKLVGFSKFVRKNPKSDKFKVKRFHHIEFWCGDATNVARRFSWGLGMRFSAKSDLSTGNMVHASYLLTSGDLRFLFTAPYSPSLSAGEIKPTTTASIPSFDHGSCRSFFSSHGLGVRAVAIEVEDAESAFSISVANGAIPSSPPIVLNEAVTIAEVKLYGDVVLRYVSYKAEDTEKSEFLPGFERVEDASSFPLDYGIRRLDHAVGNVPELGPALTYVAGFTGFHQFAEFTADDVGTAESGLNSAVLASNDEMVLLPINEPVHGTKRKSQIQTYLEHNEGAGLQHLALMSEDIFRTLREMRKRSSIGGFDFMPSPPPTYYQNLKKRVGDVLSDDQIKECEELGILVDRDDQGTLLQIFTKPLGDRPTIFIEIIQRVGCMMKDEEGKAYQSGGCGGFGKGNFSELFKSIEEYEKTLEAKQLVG
Excerpt: Alternatively estimates of kon values can be determined more directly by mixing HPPD with radio or otherwise labelled herbicide inhibitor and monitoring the progress of the binding reaction, optionally by rapidly isolating the enzyme inhibitor complex and/or by any one of a number of methods (for example fluorimetry, EPR, NMR, radiodetection etc). For example, the reaction with HPPD may be started by addition of radiolabelled herbicide, allowed to proceed for a series of different times and rapidly quenched by addition and mixing with a large excess of unlabelled inhibitor. In this case the extent of binding at different times may, for example, be monitored by using ultrafiltration, binding to filters or gel filtration to separate radiolabel-bound to HPPD from unbound label which fractions can then each be quantitated by scintillation counting. […]
The measurements of koff are based on physical rather than assay-based measurements. Similarly, kon rates can also be measured by a direct physical method, in this case the use of radiolabelled inhibitor and physical separation of protein bound from free inhibitor. […] The rates of binding determined on the basis of measurement of the amount of radiolabelled inhibitor bound after various times of reaction are found to correlate very well with measurements based upon assay-based measurements of the rate of decline of enzyme activity. […]

[2] = tested on: untransformed tobacco explants; experiment: Explants on MS agar containing mesotrione, bleaching; format: in vivo; conditions: MS agar + 3% sucrose
Excerpt: Explants (i.e. a leaf plus short segment of stem containing the auxiliary bud) are placed into MS agar (+3% sucrose) containing various concentrations of mesotrione (see above) from 0.02 to 2 ppm. In tobacco, for example, untransformed explants are fully bleached at 0.02 ppm. […] In these particular experiments, only the shoot that develops from the bud is bleached, the leaf on the explanted tissue remains green.

Arabidopsis HPPD [3] = target: T1, Arabidopsis HPPD; experiment: Dissociation of enzyme/inhibitor complexes by exchange with 14C-labelled inhibitor (koff; Kd = koff/kon); format: binding
Protocol: It will be appreciated that many suitable methods known in the art for determining such low koff values are suitable for working the current invention. These include measuring rates of exchange of radio or otherwise labelled inhibitors either with or away from the enzyme inhibitor complex. For example enzyme inhibitor complexes can readily be prepared by incubating HPPD preparations with labelled or unlabelled inhibitor and then, after suitable periods, optionally rapidly separating the thus formed enzyme inhibitor complex from excess inhibitor by any suitable method such as ultrafiltration, binding to filters or exchange down a gel filtration column. Exchange reactions with the, thus prepared enzyme inhibitor complex is then initiated by addition of, as appropriate, excess labelled or unlabelled inhibitor. […] Many methods such as radiometric, fluorimetric, NMR, fluorescence depolarisation, EPR, Mossbauer, UV/VIS spectrophotometry etc. or phonon resonance can, in principle, be used to monitor the enzyme/ligand exchange reactions and, particularly in this case where the enzyme contains an iron atom at the ligand binding site. Optionally, the monitoring method may be continuous (as, for example, with scintillation proximity/bead-based methods) or, discontinuous, based upon collection of data at various timepoints wherein samples are removed and the bound and unbound label components rapidly separated and quantitated.
Values of koff can suitably be calculated by computer fitting based upon is numerical integration of the exchange data along with information on the active-site concentration of HPPD and upon kon values obtained as described below. […] In any event, koff values are always here calculated from the rate of the major slow exchange reaction.
^14C mesotrione is of specific activity 1.12 GBq/mmol. […] Following this initial binding reaction, exchange reactions are initiated by addition of cold mesotrione to a final concentration of 60 μM and 200 μl aliquots removed at various times to rapid chromatography down a NAP5 gel filtration column equilibrated in 50 mM BTP at pH 7 containing 0.1 M KCl, separation into fractions containing protein-bound or free radiolabel and liquid scintillation counting.
Nevertheless, here, for practical purposes, koff values are always here calculated from the rate of the major slow exchange reaction.
Not all test inhibitors are readily available in a radiolabelled form.

Structure (SMILES)	rate constant of subsequent much slower binding to the remaining site (Arabidopsis HPPD [1]; 25% v/v glycerol)	concentration at which explants are fully bleached [2]	Kd (Arabidopsis HPPD [3]; Kd, value obtained + glycerol (in parentheses))	Kd (Arabidopsis HPPD [3]; Kd, without glycerol, Kd = koff/kon)	kon (Arabidopsis HPPD [1]; without 25% v/v glycerol)	Kd (Arabidopsis HPPD [3])	ratio Kd2/Kd4, structure II to structure VII (Arabidopsis HPPD [3])	ratio koff2/koff4, structure II to structure VII (Arabidopsis HPPD [3])	koff (Arabidopsis HPPD [3]; without 25% v/v glycerol, exchange with 14C mesotrione)	koff (Arabidopsis HPPD [3]; − glycerol)
CS(=O)(=O)c1ccc(C(=O)C2C(=O)CCCC2=O)c([N+](=O)[O-])c1 [Structure I, 2-(Nitro-4-methanesulphonylbenzoyl)-cyclohexane-1,3-dione, reference compound]	~1000 M⁻¹ s⁻¹	0.02 ppm	0.021 nM	0.014 nM	–	–	–	–	–	–
Cc1nc(C(F)(F)F)ccc1C(=O)C1C(=O)C2CCC(C2)C1=O (stereo not shown) [Structure II]	–	–	–	–	800000 M⁻¹ s⁻¹	0.11 nM	3.4	11 and 8.6	~1.16e-05 s⁻¹	1.16e-05 s⁻¹
